According to PubChem BioAssay (NCI):
“And” between values parts separate entries of the source, which are not always exact repeats. Equal entries are not always repeated.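 Each compound was tested at five concentrations against cells in 96-well plates for 48 hours. Here, GI50 denotes the concentration required for 50% inhibition of growth. At the TGI there is no net growth.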

Key:
Test in all cases: NCI anticancer screen, dose series, 48 h
LOX IMVI melanoma = system: LOX IMVI melanoma
ACHN renal = system: ACHN renal
SNB-75 CNS = system: SNB-75 CNS
NCI-H226 lung = system: NCI-H226 lung
KM12 colon = system: KM12 colon
HOP-62 NSCLC = system: HOP-62 NSCLC
HT29 colon = system: HT29 colon
NCI-H23 lung = system: NCI-H23 lung
NCI-H522 lung = system: NCI-H522 lung
K-562 leukemia = system: K-562 leukemia
HCT-15 colon = system: HCT-15 colon
SNB-19 CNS = system: SNB-19 CNS
NCI-H460 lung = system: NCI-H460 lung
NCI/ADR-RES ovarian = system: NCI/ADR-RES ovarian
BT-549 breast = system: BT-549 breast
OVCAR-3 ovarian = system: OVCAR-3 ovarian
DU-145 prostate = system: DU-145 prostate
HOP-92 NSCLC = system: HOP-92 NSCLC
SW-620 colon = system: SW-620 colon
UO-31 renal = system: UO-31 renal
HCT-116 colon = system: HCT-116 colon
SR leukemia = system: SR leukemia
SF-539 CNS = system: SF-539 CNS
MALME-3M melanoma = system: MALME-3M melanoma
MDA-N = system: MDA-N
M14 melanoma = system: M14 melanoma
OVCAR-8 ovarian = system: OVCAR-8 ovarian
PC-3 prostate = system: PC-3 prostate
TK-10 renal = system: TK-10 renal
RXF 393 renal = system: RXF 393 renal
OVCAR-5 ovarian = system: OVCAR-5 ovarian
CCRF-CEM leukemia = system: CCRF-CEM leukemia
MDA-MB-231 breast = system: MDA-MB-231 breast
IGROV1 ovarian = system: IGROV1 ovarian
HL-60(TB) leukemia = system: HL-60(TB) leukemia
EKVX NSCLC = system: EKVX NSCLC
U251 CNS = system: U251 CNS
SK-OV-3 ovarian = system: SK-OV-3 ovarian
UACC-62 melanoma = system: UACC-62 melanoma
SK-MEL-28 melanoma = system: SK-MEL-28 melanoma
A549 NSCLC = system: A549 NSCLC
SK-MEL-2 melanoma = system: SK-MEL-2 melanoma
SF-295 CNS = system: SF-295 CNS
SF-268 CNS = system: SF-268 CNS
COLO 205 colon = system: COLO 205 colon
SN12C renal = system: SN12C renal
HCC-2998 colon = system: HCC-2998 colon
MDA-MB-435 = system: MDA-MB-435
RPMI-8226 leukemia = system: RPMI-8226 leukemia
T-47D breast = system: T-47D breast
SK-MEL-5 melanoma = system: SK-MEL-5 melanoma
A498 renal = system: A498 renal
CAKI-1 renal = system: CAKI-1 renal
HS 578T breast = system: HS 578T breast
MOLT-4 leukemia = system: MOLT-4 leukemia
UACC-257 melanoma = system: UACC-257 melanoma
OVCAR-4 ovarian = system: OVCAR-4 ovarian
786-0 renal = system: 786-0 renal
MCF7 breast = system: MCF7 breast
DMS 114 small cell lung = system: DMS 114 small cell lung

In the case of `O=c1oc2ccc3ccccc3c2cc1-c1nc2ccccc2s1`, the TGI (LOX IMVI melanoma) is reported as greater than 100 µM, the TGI (ACHN renal) is reported as greater than 100 µM and the TGI (SNB-75 CNS) is reported as greater than 100 µM. The TGI (NCI-H226 lung) was greater than 100 µM, the TGI (KM12 colon) was greater than 100 µM and the TGI (HOP-62 NSCLC) was greater than 100 µM. The TGI (HT29 colon) was greater than 100 µM, the TGI (NCI-H23 lung) was greater than 100 µM and the TGI (NCI-H522 lung) was greater than 100 µM. For the same compound, the TGI (K-562 leukemia) was greater than 77.6 µM, the TGI (HCT-15 colon) was greater than 100 µM and the TGI (SNB-19 CNS) was greater than 26.9 µM. For the same compound, the TGI (NCI-H460 lung) was greater than 100 µM, the TGI (NCI/ADR-RES ovarian) was greater than 100 µM and the TGI (BT-549 breast) was greater than 100 µM. It also gave a TGI (OVCAR-3 ovarian) greater than 100 µM, a TGI (DU-145 prostate) greater than 100 µM and a TGI (HOP-92 NSCLC) greater than 100 µM. It also gave a TGI (SW-620 colon) greater than 100 µM, a TGI (UO-31 renal) greater than 100 µM and a TGI (HCT-116 colon) greater than 100 µM. The TGI (SR leukemia) was greater than 21.5 µM, the TGI (SF-539 CNS) was greater than 100 µM and the TGI (MALME-3M melanoma) was greater than 100 µM. For the same compound, the TGI (MDA-N) was greater than 100 µM, the TGI (M14 melanoma) was greater than 100 µM and the TGI (OVCAR-8 ovarian) was greater than 100 µM. The TGI (PC-3 prostate) was greater than 100 µM, the TGI (TK-10 renal) was greater than 100 µM and the TGI (RXF 393 renal) was greater than 100 µM. The TGI (OVCAR-5 ovarian) was greater than 100 µM, the TGI (CCRF-CEM leukemia) was greater than 100 µM and the TGI (MDA-MB-231 breast) was greater than 100 µM. The TGI (IGROV1 ovarian) was greater than 100 µM, the TGI (HL-60(TB) leukemia) was greater than 100 µM and the TGI (EKVX NSCLC) was greater than 100 µM. For the same compound, the TGI (U251 CNS) was greater than 100 µM, the TGI (SK-OV-3 ovarian) was greater than 100 µM and the TGI (UACC-62 melanoma) was greater than 100 µM. It also gave a TGI (SK-MEL-28 melanoma) greater than 100 µM, a TGI (A549 NSCLC) greater than 100 µM and a TGI (SK-MEL-2 melanoma) greater than 100 µM. It also gave a TGI (SF-295 CNS) greater than 100 µM, a TGI (SF-268 CNS) greater than 100 µM and a TGI (COLO 205 colon) greater than 100 µM. It also gave a TGI (SN12C renal) greater than 100 µM, a TGI (HCC-2998 colon) greater than 100 µM and a TGI (MDA-MB-435) greater than 100 µM. The TGI (RPMI-8226 leukemia) was greater than 32.8 µM, the TGI (T-47D breast) was greater than 100 µM and the TGI (SK-MEL-5 melanoma) was greater than 100 µM. It also gave a TGI (A498 renal) greater than 100 µM, a TGI (CAKI-1 renal) greater than 100 µM and a TGI (HS 578T breast) greater than 100 µM. The TGI (MOLT-4 leukemia) was greater than 21.6 µM, the TGI (UACC-257 melanoma) was greater than 100 µM and the TGI (OVCAR-4 ovarian) was greater than 100 µM. For the same compound, the TGI (786-0 renal) was greater than 100 µM and the TGI (MCF7 breast) was greater than 24.4 µM.

For `CC(C)SC1CC2C(CC1(C)O)C2(C)C` (stereo not drawn), the GI50 (HL-60(TB) leukemia) was 53.4 µM and 9.68 µM, the TGI (HL-60(TB) leukemia) was greater than 100 µM and the GI50 (DMS 114 small cell lung) was 89.7 µM and 18.7 µM. For the same compound, the TGI (DMS 114 small cell lung) was greater than 100 µM.
